# According to patent publication US20080280996A1, “Use of Carophyllenes in the Manufacture of Medicaments and Treatment of Bodily Conditions of Inflammation and Inflammatory Pain” (priority 2004, published 2008):
# System: carrageenin-induced inflammatory nociception in the hind paw
# Assay: Inflammatory nociception induced by carrageenin (von Frey filament)
# Type: in vivo
# Conditions: mice, carrageenin 300 μg per paw intraplantar; alpha-humulene 50 mg/kg orally or paracetamol 600 mg/kg orally, 1 h before; evaluated after 3, 4 and 6 hours
# Experimental: The evaluation methodology used in this test is described by Vaz et al. in J. Pharmacol. Exp. Ther. 278:304-312, 1996. Male mice (25-35 g) were systemically (orally) treated with alpha-humulene, 50 mg/kg, administered 1 hour before the experiment. Animals treated with 0.9% saline solution (0.1 ml/10 g) were used as the control. Another group of animals was treated with paracetamol (600 mg/kg, orally, administered 1 h before the treatment), that was used as positive control. For the induction of inflammatory pain, the animals received an intraplantar injection of 0.05 ml of carrageenin (300 μg per paw) at the plantar surface of the right hind paw. […] The nociception was evaluated with a Von Frey filament (0.4 g) after 3, 4 and 6 hours. […] The filament was applied to the right hind paw, complying with the criteria of (1) the application was perpendicular to the plantar surface, with enough pressure to cause the filament to bend, thus obtaining total pressure; (2) the animals were evaluated when the four paws were touching the screen; (3) the paw withdrawal response was considered when the animal removed the paw entirely from the support screen; (4) each animal was stimulated 10 consecutive times, each stimulation lasting 1 second; (5) each paw withdrawal event was considered as 10% of the response, with 10 withdrawal events corresponding to 100% response. […]
smiles,measurement,value
"CC(=O)Nc1ccc(O)cc1 [paracetamol, reference compound]",inflammatory nociception (paw withdrawal response to 0.4 g von Frey filament),reduced the inflammatory nociception
